Results on two substances are retold here after US20230263944A1, “DUAL FUNCTION SURFACE FOR CELL CAPTURE AND SPREADING” (THE ROYAL INSTITUTION FOR THE ADVANCEMENT OF …, priority 2020, published 2023).

Data set [1] has as its system endothelial colony forming cells (ECFCs). Description: ECFC seeding on modified polystyrene surfaces under static conditions. To be noted: vs unmodified aminated polystyrene surfaces. The data set is classed as cell-based, human. The text has this:
Cells were stained for F-actin (red) and DAPI (blue). Images were used to quantify cell number and surface area per cell. Unmodified=aminated polystyrene surfaces without further modifications. **p<0.01, *p<0.05 with N=3 experimental replicas.
To test whether the bifunctional surfaces can impart two significant effects on cells of interests, ECFCs derived from human peripheral blood were either seeded on the modified surfaces under static conditions or flown over the surfaces in a perfusion loop under 1 dyn/cm^2 wall shear stress. […] The two molecules were mixed together at the center point concentrations of the previously described surface model.

A further data set has as its system HUVEC cells. Briefly: HUVEC seeding on Protein G / anti-CD144 / RGD-TAMRA polystyrene well plate. The data set is classed as cell-based, human. The note with it: 3 h shaker incubation; for HUVEC attachment to the surface: serum free medium. The protocol:
A 6 well plate was seeded with the following conditions in each well (W1-W6):
The functionalized surface was rinsed with phosphate buffer saline (PBS) and […]. HUVEC cells were used and were seeded in each well in serum free medium at a concentration of 19,000 cells/mL. The plate was incubated for 3 hours on an incubation shaker then imaged under the microscope. The plate were left to incubate for another 21 h (total 24 h) at 37° C. 5% CO2 and imaged again.

A short description of data set [2]: ELISA of functionalized CoCr surfaces after gamma-irradiation. The data set is classed as physicochemical. To be noted: two one-side t-test, 15% difference considered practically equivalent. The source says:
(A) Principle of the ELISA method used to detect immobilized antibodies via horseradish peroxidase (HRP) conjugated secondary antibodies. (B) ELISA method used to detect immobilized RGD-TAMRA peptides via primary anti rhodamine antibodies followed by HRP conjugated secondary antibodies.
For orientation: ELISA stands for enzyme-linked immunosorbent assay.

The next data set relates to ECFCs. Briefly: Surface endothelialization of functionalized CoCr vascular stents in a perfusion model. To be noted: flow. The data set is classed as cell-based, human. The text has this:
(A) Representative fluorescence images of ECFCs on the surface of modified stents (after plasma amination) and an unmodified control after 2 and half hours of circulating ECFCs over the stents in a perfusion model at 1 dyn/cm^2 wall shear stress. ECFCs were stained for F-actin (red) and nuclei (blue). Phase contrast images show the corresponding stent structure. Flow direction was from right to left. (B) Quantification of cell adhesion parameters from the fluorescence images. *P<0.05 and **P<0.01 with N=3 experimental replicas from different ECFC donors.
As encompassed herein, the modifications can be applied to different aminated substrates—as shown on polystyrene (FIGS. 4-13) and on cobalt-chromium (CoCr) (FIGS. 16-18). The modifications can be applied to different geometries while retaining the benefits observed on flat substrates.

Data set [3] can be described thus: ELISA on L605 CoCr substrates modified with peptides and antibodies. To be noted: dark, ambient conditions, covalent peptide grafting vs adsorption. The protocol: (A) Without S-SMPB, peptides adsorb onto L605 which can change antibody orientation on surfaces. (B) 12-well plate with CoCr samples at the end of the ELISA. For custom ELISAs, RGD-TAMRA was detected using anti Rhodamine followed by HRP-labelled secondary antibodies. Anti CD309 was detected using an HRP-labelled F(ab′)2 secondary antibody on a separate set of samples. HRP activity was quantified by measuring A450 of supernatant collected after 30 min incubation with TMB substrate+addition of stop solution. […] N=3 L605 samples except G-I (N=9 images).

With CGK(PEG3-TAMRA)GGRGDS-NH2 [RGD-TAMRA], the “surface area of the ECFCs (cell spreading)” value in data set [1] was “significantly higher than the controls”; in data set [1] (listed as RGD peptides), “increase cell spreading”. For the same substance, the “HUVEC attachment to the surface” value in the data set on HUVEC cells was “strongly attach”. Further, the “ELISA signal after gamma-irradiation” value in data set [2] is listed as “practically equivalent”. Besides, the “cell spreading on CoCr stents” value in the data set with ECFCs is given as “higher cell spreading”. In data set [3], the “ELISA signal after 28d storage” value was “significantly higher”.
On to collagen, for which, in the data set with HUVEC cells, the HUVEC spreading result is “spread more” and the “HUVEC attachment to the surface” value is reported as “strongly attach”.
